The target of this assay is T1, GPR73 (prokineticin 1 receptor) (Homo sapiens, UniProt Q8TCW9).
T1 construct: expressed in transfected cells; host or cells: HEK 293
As to the kind of experiment: PK1 functional assay: Ca2+ mobilization on the FLIPR. In kind it is cell-based. The settings on record: for inhibition at 10 µM: read-out: Ca^2+ Mobilization % Inh @10 µM; for IC50: HEK 293 GPR73 cells, read-out: Ca^2+ Mobilization IC50. As for the experimental part:
At a time of 24 h prior to running the assay, in cell culture media (DMEM containing high Glucose and L-glutamine, 10% FBS, 1% Pen/Streptomycin, 1% Sodium Pyruvate, 20 mM HEPES, Zeocin 200 mg/L), 100 µL of 1.3*10^6/ml HEK 293 GPR73 (prokineticin 1 receptor) expressing cells were plated in a 96 well poly-d-lysine coated plate (Costar), and incubated at 37° C. and 5% CO2. On the day in which the assay was run, the media was removed and 200 µL of 5× Calcium Plus Dye (Molecular Devices) which was previously resuspended with 200 mL of assay buffer [HBSS w/Ca^2+ and Mg^2+ w/o phenol red, 20 mM HEPES, 0.1% BSA, 10 mL probenecid (710 mg probenecid in 5 mL of 1N NaOH, to which was then added 5 mL HBSS containing 20 mM HEPES)] was added to each well of the 96-well plate. The plate was incubated at 37° C. and 5% CO2 for 30 min in dark. The plate was removed and allowed to reach RT for 15 min in the dark. The assay was then run on the FLIPR. In Brief: base line read for 1 min, compound added (25 μL) and incubated for 4 min, 15 seconds, PK1 ligand preparation added (25 μL) for a final concentration of a previously determined EC50 and fluorescence was counted for 1 min, 45 seconds. Baseline is described as the amount of relative fluorescence read when buffer alone is added to cells. Baseline was subtracted from all wells. Percent of control was calculated as follows: (Baseline subtracted well value is divided by baseline subtracted max value)*100. Percent inhibition is 100 minus the percent of control value.
The IC50 is defined as the amount of a given compound required to inhibit 50% of the maximum signal that is generated by the concentration of PK1 preparation used in our assay. IC50 values were calculated using GraphPad Prism.
A general note: Calcium assays in cells follow changes in intracellular calcium, usually with a dye or a luminescent sensor.

Each structure is given as a SMILES string. Like-named read-outs stand apart in the source and are kept apart here.

T1 sequence (Q8TCW9 whole entry, species assumed): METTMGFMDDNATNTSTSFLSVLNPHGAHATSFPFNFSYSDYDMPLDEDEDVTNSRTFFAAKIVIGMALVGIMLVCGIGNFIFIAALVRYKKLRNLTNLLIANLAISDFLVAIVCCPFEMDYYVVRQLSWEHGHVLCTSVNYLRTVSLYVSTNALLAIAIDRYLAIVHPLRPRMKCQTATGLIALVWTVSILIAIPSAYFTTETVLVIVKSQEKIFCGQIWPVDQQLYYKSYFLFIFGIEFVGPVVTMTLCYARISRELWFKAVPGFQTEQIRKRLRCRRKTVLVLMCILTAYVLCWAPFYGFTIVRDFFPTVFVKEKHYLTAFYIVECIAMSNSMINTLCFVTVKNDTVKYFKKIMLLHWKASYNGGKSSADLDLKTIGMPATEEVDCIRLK

What is called IC50 is the point on the concentration scale where inhibition reaches its midpoint. Consider `CCc1ccc(Cn2c(=O)nc(NCCn3c(N)nc4ccccc43)n(Cc3ccc(OC(F)F)cc3)c2=O)cc1` [Cpd 86], for which the IC50 came out at 0.337 µM. In addition, the inhibition at 10 µM (10 µM) was found to be 94%.
Take `Nc1nc2ccc(F)cc2n1CCNc1nc(=O)n(Cc2ccc(F)cc2)c(=O)n1Cc1ccc(OC(F)(F)F)cc1` [Cpd 33]: the IC50 came to 0.323 µM. For the setting “10 µM”, the inhibition at 10 µM was found to be 93%.
For the molecule `NC1=Nc2ccccc2CN1CCNc1nc(=O)n(Cc2ccc(F)cc2)c(=O)n1Cc1ccc(OC(F)(F)F)cc1` [Cpd 47], the IC50 stood at 0.123 µM. Moreover, the inhibition at 10 µM (10 µM) turned out to be 100%.
Regarding `COc1ccc(Cn2c(NCCn3c(N)nc4cc(C(F)(F)F)ccc43)nc(=O)n(Cc3ccc(F)cc3)c2=O)cc1` [Cpd 8], the IC50 came out at 0.163 µM. The inhibition at 10 µM (10 µM) amounted to 95%.
Taken in the same sequence, the figures for `Nc1nc2cccc(F)c2n1CCNc1nc(=O)n(Cc2ccc(F)cc2)c(=O)n1Cc1ccc(OC(F)F)cc1` [Cpd 32] were 0.132 µM and 94%.
For `CCc1ccc(Cn2c(=O)nc(NCCn3c(N)nc4ccccc43)n(Cc3ccc(OC)cc3)c2=O)cc1` [Cpd 71], the IC50 amounted to 0.09 µM. Further, the inhibition at 10 µM (10 µM) came to 101%.
`CSc1ccc(Cn2c(=O)nc(NCCc3cnc(N)[nH]3)n(Cc3ccc4c(c3)CCO4)c2=O)cc1` [Cpd 64]: the IC50 came out at 0.17 µM. Also, the inhibition at 10 µM (10 µM) was determined as 93%.
Take `CCc1ccc(Cn2c(=O)nc(NCCc3cnc(N)[nH]3)n(Cc3ccc(OC)cc3)c2=O)cc1` [Cpd 60]: the IC50 came to 0.295 µM. Moreover, the inhibition at 10 µM (10 µM) came to 85%.
With `CSc1ccc(Cn2c(=O)nc(NCCn3c(N)nc4ccccc43)n(Cc3ccc4c(c3)CCO4)c2=O)cc1` [Cpd 74], the IC50 is 0.034 µM. Moreover, the inhibition at 10 µM (10 µM) was 102%.
For `COc1ccc(Cn2c(NCCn3c(N)nc4ccccc43)nc(=O)n(Cc3ccc4c(c3)nnn4C)c2=O)cc1` [Cpd 77], the IC50 amounted to 0.055 µM. Moreover, the inhibition at 10 µM (10 µM) came out at 99%.
Consider `Nc1ncc(CCNc2nc(=O)n(Cc3ccc(Cl)c(Cl)c3)c(=O)n2Cc2ccc3c(c2)CCO3)[nH]1` [Cpd 63], for which the IC50 amounted to 2.01 µM. Besides, the inhibition at 10 µM (10 µM) came out at 54%.
On to `NC1=Nc2ccc(F)cc2CN1CCNc1nc(=O)n(Cc2ccc(F)cc2)c(=O)n1Cc1ccc(OC(F)F)cc1` [Cpd 45], for which the IC50 was 0.092 µM. In addition, the inhibition at 10 µM (10 µM) worked out at 101%.
For the molecule `NC1=Nc2cccc(Cl)c2CN1CCNc1nc(=O)n(Cc2ccc(F)cc2)c(=O)n1Cc1ccc(OC(F)(F)F)cc1` [Cpd 48], the IC50 was determined as 0.116 µM. The inhibition at 10 µM (10 µM) is 101%.
`COc1ccc(Cn2c(NCCn3c(N)nc4ccc(Cl)cc43)nc(=O)n(Cc3ccc(F)cc3)c2=O)cc1` [Cpd 10]: the IC50 was 0.155 µM. In addition, the inhibition at 10 µM (10 µM) came out at 90%.
Turning to `COc1ccc(Cn2c(NCCc3cnc(N)[nH]3)nc(=O)n(Cc3ccc(F)cc3)c2=O)cc1` [Cpd 4], the concentration for half-maximal inhibition (IC50) amounted to 0.048 µM. The inhibition at 10 µM (10 µM, (further determination)) amounted to 96%. For the same molecule, the inhibition at 10 µM (10 µM) was 97%. In addition, the IC50 (IC50 (further determination)) is 0.042 µM.
For the molecule `Nc1nc2ccccc2n1CCNc1nc(=O)n(Cc2ccc(Cl)c(Cl)c2)c(=O)n1Cc1ccc(OC(F)F)cc1` [Cpd 84], the IC50 was 0.345 µM. Besides, the inhibition at 10 µM (10 µM) was 97%.
Consider `CCc1ccc(Cn2c(=O)nc(NCCc3cnc(N)[nH]3)n(Cc3ccc4c(c3)CCO4)c2=O)cc1` [Cpd 65], for which the IC50 was above 10 µM. Further, for the setting “10 µM”, the inhibition at 10 µM amounted to 35%.
As to `COc1ccc(Cn2c(NCCn3c(N)nc4cc(S(C)(=O)=O)ccc43)nc(=O)n(Cc3ccc(F)cc3)c2=O)cc1` [Cpd 9], the IC50 came to 2.29 µM. For the setting “10 µM”, the inhibition at 10 µM came out at 67%.
For `Nc1nc2ccccc2n1CCNc1nc(=O)n(Cc2ccc(Cl)c(Cl)c2)c(=O)n1Cc1ccc2c(c1)CCO2` [Cpd 73], the IC50 was determined as 0.186 µM. The inhibition at 10 µM (10 µM) was found to be 90%.
With `Nc1nc2cc(C(F)(F)F)ccc2n1CCNc1nc(=O)n(Cc2ccc(F)cc2)c(=O)n1Cc1ccc(OC(F)(F)F)cc1` [Cpd 35], the IC50 came out at 5.01 µM. Also, the inhibition at 10 µM (10 µM) was found to be 59%.
Regarding `Nc1ncc(CCNc2nc(=O)n(Cc3ccc(F)cc3)c(=O)n2Cc2ccc(OC(F)F)cc2)[nH]1` [Cpd 53], the IC50 worked out at 0.036 µM. The inhibition at 10 µM (10 µM, (further determination)) came out at 100%. The inhibition at 10 µM (10 µM) was 93%. Further, the IC50 (IC50 (further determination)) was determined as 0.015 µM.
On to `COc1cccc2c1nc(N)n2CCNc1nc(=O)n(Cc2ccc(F)cc2)c(=O)n1Cc1ccc(OC(F)F)cc1` [Cpd 55], for which the IC50 amounted to 0.233 µM. Further, the inhibition at 10 µM (10 µM) turned out to be 91%.
Regarding `COc1ccc(Cn2c(NCCN3Cc4ccccc4N=C3N)nc(=O)n(Cc3ccc(F)cc3)c2=O)cc1` [Cpd 12, 6-[2-(2-Amino-4H-quinazolin-3-yl)-ethylamino]-3-(4-fluoro-benzyl)-1-(4-methoxy-benzyl)-1H-[1,3,5]triazine-2,4-dione], the IC50 turned out to be 0.028 µM. For the setting “10 µM”, the inhibition at 10 µM came to 94%.
On to `Nc1nc2cc(F)ccc2n1CCNc1nc(=O)n(Cc2ccc(F)cc2)c(=O)n1Cc1ccc(OC(F)F)cc1` [Cpd 26], for which the IC50 stood at 0.081 µM. Also, the inhibition at 10 µM (10 µM, (further determination)) stood at 88%. In addition, the inhibition at 10 µM (10 µM) turned out to be 92%. The IC50 (IC50 (further determination)) is 0.015 µM.
For `CCc1ccc(Cn2c(=O)nc(NCCc3cnc(N)[nH]3)n(Cc3ccc(OC(F)F)cc3)c2=O)cc1` [Cpd 81], the IC50 was found to be 0.502 µM. Moreover, for the setting “10 µM”, the inhibition at 10 µM was found to be 90%.
Taken in the same sequence, the figures for `COc1ccc(Cn2c(NCCc3cnc(N)[nH]3)nc(=O)n(Cc3ccc4c(c3)nnn4C)c2=O)cc1` [Cpd 67] were 0.171 µM and 93%.
For the molecule `Cn1nnc2cc(Cn3c(=O)nc(NCCn4c(N)nc5ccccc54)n(Cc4ccc5c(c4)CCO5)c3=O)ccc21` [Cpd 78], the IC50 is 0.066 µM. Moreover, the inhibition at 10 µM (10 µM, (further determination)) was determined as 104%. For the same molecule, the inhibition at 10 µM (10 µM) came to 102%. In addition, the IC50 (IC50 (further determination)) amounted to 0.13 µM.
Consider `Nc1nc2ccc(Cl)cc2n1CCNc1nc(=O)n(Cc2ccc(F)cc2)c(=O)n1Cc1ccc(OC(F)F)cc1` [Cpd 30], for which the IC50 came to 0.252 µM. For the setting “10 µM”, the inhibition at 10 µM came out at 86%.
With `Nc1nc2c(F)cccc2n1CCNc1nc(=O)n(Cc2ccc(F)cc2)c(=O)n1Cc1ccc(OC(F)(F)F)cc1` [Cpd 39], the IC50 was 0.38 µM. Further, the inhibition at 10 µM (10 µM) was 80%.
Turning to `Nc1nc2ccc(F)c(F)c2n1CCNc1nc(=O)n(Cc2ccc(F)cc2)c(=O)n1Cc1ccc(OC(F)F)cc1` [Cpd 29], the IC50 is 0.406 µM. The inhibition at 10 µM (10 µM) is 83%.
Consider `Nc1nc2ccccc2n1CCNc1nc(=O)n(Cc2ccc(F)cc2)c(=O)n1Cc1ccc(OC(F)(F)F)cc1` [Cpd 19], for which the IC50 was determined as 0.104 µM. Further, the inhibition at 10 µM (10 µM, (further determination)) came to 100%. Besides, for the setting “10 µM”, the inhibition at 10 µM was found to be 102%. Also, for the setting “IC50 (further determination)”, the IC50 was 0.212 µM.
Regarding `NC1=Nc2cc(Cl)ccc2CN1CCNc1nc(=O)n(Cc2ccc(F)cc2)c(=O)n1Cc1ccc(OC(F)(F)F)cc1` [Cpd 50], the IC50 came to 0.332 µM. Moreover, the inhibition at 10 µM (10 µM) stood at 99%.
Consider `NC1=Nc2ccc(F)cc2CN1CCNc1nc(=O)n(Cc2ccc(F)cc2)c(=O)n1Cc1ccc(OC(F)(F)F)cc1` [Cpd 51], for which the IC50 came out at 0.996 µM. Moreover, the inhibition at 10 µM (10 µM) came out at 99%.
`COc1ccc(Cn2c(NCCc3cnc(N)[nH]3)nc(=O)n(Cc3ccc(Cl)c(Cl)c3)c2=O)cc1` [Cpd 59]: the IC50 was 0.049 µM. Moreover, the inhibition at 10 µM (10 µM) was determined as 96%.
In the case of `Nc1nc2ccccc2n1CCNc1nc(=O)n(Cc2ccc(F)cc2)c(=O)n1Cc1ccc(OC(F)F)cc1` [Cpd 20], the IC50 came to 0.053 µM. Besides, the inhibition at 10 µM (10 µM, (further determination)) was determined as 101%. Besides, the inhibition at 10 µM (10 µM) was determined as 103%. Besides, under “IC50 (further determination)”, the IC50 came out at 0.052 µM.
In the case of `Nc1nc2ccc(F)c(F)c2n1CCNc1nc(=O)n(Cc2ccc(F)cc2)c(=O)n1Cc1ccc(OC(F)(F)F)cc1` [Cpd 37], the IC50 stood at 2.2 µM. Further, the inhibition at 10 µM (10 µM) stood at 72%.
Taken in the same sequence, the figures for `COc1ccc(Cn2c(NCCn3c(N)nc4ccccc43)nc(=O)n(Cc3ccc(SC)cc3)c2=O)cc1` [Cpd 70] were 0.022 µM and 103%.
Consider `COc1ccc2c(c1)N=C(N)N(CCNc1nc(=O)n(Cc3ccc(F)cc3)c(=O)n1Cc1ccc(OC(F)F)cc1)C2` [Cpd 57], for which the IC50 was determined as 0.144 µM. Moreover, under “10 µM”, the inhibition at 10 µM amounted to 95%.
For the molecule `COc1ccc(Cn2c(NCCn3c(N)nc4ccccc43)nc(=O)n(Cc3ccc(Cl)c(Cl)c3)c2=O)cc1` [Cpd 69], the half-maximal inhibitory concentration (IC50) came out at 0.066 µM. The inhibition at 10 µM (10 µM) was 102%.
As for `CSc1ccc(Cn2c(=O)nc(NCCn3c(N)nc4ccccc43)n(Cc3ccc(OC(F)F)cc3)c2=O)cc1` [Cpd 85], the IC50 was found to be 0.157 µM. The inhibition at 10 µM (10 µM) was 99%.
Regarding `Nc1nc2ccccc2n1CCNc1nc(=O)n(Cc2ccc3c(c2)CCO3)c(=O)n1Cc1ccc2c(c1)CCO2` [Cpd 76], the IC50 worked out at 0.225 µM. The inhibition at 10 µM (10 µM) was 97%.

For the origin of these results see patent publication US8324380B2, “Amino-heteroaryl-containing prokineticin 1 receptor antagonists” (Janssen Pharmaceutica NV, priority 2007, dated 2012).
